PMC5901755 (ACS chemical neuroscience, 2016)

Target: T1, TREK-1 (Homo sapiens, UniProt O95069)
T1 sequence (O95069 1-426): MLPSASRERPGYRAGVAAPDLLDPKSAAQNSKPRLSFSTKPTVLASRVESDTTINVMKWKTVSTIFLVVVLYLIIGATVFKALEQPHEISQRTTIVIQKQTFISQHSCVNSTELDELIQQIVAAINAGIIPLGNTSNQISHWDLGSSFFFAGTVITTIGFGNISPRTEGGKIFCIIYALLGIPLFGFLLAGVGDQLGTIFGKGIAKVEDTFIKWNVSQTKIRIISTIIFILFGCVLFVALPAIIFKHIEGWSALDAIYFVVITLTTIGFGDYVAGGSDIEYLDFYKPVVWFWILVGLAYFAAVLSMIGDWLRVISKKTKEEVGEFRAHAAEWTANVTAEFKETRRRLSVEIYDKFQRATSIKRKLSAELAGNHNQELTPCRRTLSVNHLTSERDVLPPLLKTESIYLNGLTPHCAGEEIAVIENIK
Assay: Tl+ flux fluorescence
Assay type: cell-based
Details: inhibitor; 1.8 µM, 10 min pretreatment; pH 7.3

CCCCC[C@H](O)/C=C/[C@H]1CC[C@H](O)[C@@H]1C/C=C\CCCC(=O)O [11-deoxy prostaglandin F2α]
Tl+ flux fluorescence (Thallos), T-REx-HEK293: we observed that 11-deoxy prostaglandin F2α inhibited TREK-1 channels
